Drawing on patent publication US20220144848A1, “SUBSTITUTED OXOPYRIDINE DERIVATIVES” (Bayer Aktiengesellschaft, priority 2018, published 2022), this text covers IC50 for 22 molecules.

Molecules are shown by their SMILES.

The target in one experiment is T1, human plasma kallikrein (Homo sapiens, UniProt P03952).
T1 construct: purchased Kordia
Put plainly: Determination of the plasma kallikrein activity (fluorogenic peptide substrate H-Pro-Phe-Arg-AMC). Format: biochemical. To be noted: plasma kallikrein from Kordia, 15 min preincubation, 30 min at 22° C., fluorescence; some as mean values from multiple determinations. The protocol: To determine the plasma kallikrein inhibition of the substances according to the invention, a biochemical test system is used which utilizes the reaction of a peptidic plasma kallikrein substrate to determine the enzymatic activity of human plasma kallikrein. Here, plasma kallikrein cleaves from the peptidic plasma kallikrein substrate the C-terminal aminomethylcoumarin (AMC), the fluorescence of which is measured. The determinations are carried out in microtitre plates.
Test substances are dissolved in dimethyl sulfoxide and serially diluted in dimethyl sulfoxide (3000 μM to 0.0078 μM; resulting final concentrations in the test: 50 μM to 0.00013 μM). In each case 1 μl of the diluted substance solutions is placed into the wells of white microtitre plates from Greiner (384 wells). 20 μl of assay buffer (50 mM Tris/HCl pH 7.4; 100 mM sodium chloride solution; 5 mM of calcium chloride solution; 0.1% of bovine serum albumin) and 20 μl of plasma kallikrein from Kordia (0.6 nM in assay buffer) are then added successively. After 15 min of incubation, the enzyme reaction is started by addition of 20 μl of the substrate H-Pro-Phe-Arg-AMC dissolved in assay buffer (10 μM in assay buffer) from Bachem, the mixture is incubated at room temperature (22° C.) for 30 min and fluorescence is then measured (excitation: 360 nm, emission: 460 nm). The measured emissions of the test batches with test substance are compared to those of control batches without test substance (only dimethyl sulfoxide instead of test substance in dimethyl sulfoxide), and IC50 values are calculated from the concentration/activity relationships. Activity data from this test are listed in Table B below (some as mean values from multiple independent individual determinations): […]

A further experiment concerns the target T2, human factor XIa (Homo sapiens, UniProt P03951).
T2 construct: purchased Kordia
As to the kind of experiment: Measurement of FXIa inhibition (fluorogenic peptide substrate Boc-Glu(OBzl)-Ala-Arg-AMC). Particulars: factor XIa from Kordia, 15 min preincubation, 30 min at 22° C., fluorescence; some as mean values from multiple determinations. The class given is biochemical. The protocol: The factor XIa inhibition of the substances according to the invention is determined using a biochemical test system which utilizes the reaction of a peptidic factor XIa substrate to determine the enzymatic activity of human factor XIa. Here, factor XIa cleaves from the peptidic factor XIa substrate the C-terminal aminomethylcoumarin (AMC), the fluorescence of which is measured. The determinations are carried out in microtitre plates.
Test substances are dissolved in dimethyl sulfoxide and serially diluted in dimethyl sulfoxide (3000 μM to 0.0078 μM; resulting final concentrations in the test: 50 μM to 0.00013 μM). In each case 1 μl of the diluted substance solutions is placed into the wells of white microtitre plates from Greiner (384 wells). 20 μl of assay buffer (50 mM of Tris/HCl pH 7.4; 100 mM of sodium chloride; 5 mM of calcium chloride; 0.1% of bovine serum albumin) and 20 μl of factor XIa from Kordia (0.45 nM in assay buffer) are then added successively. After 15 min of incubation, the enzyme reaction is started by addition of 20 μl of the factor XIa substrate Boc-Glu(OBzl)-Ala-Arg-AMC dissolved in assay buffer (10 μM in assay buffer) from Bachem, the mixture is incubated at room temperature (22° C.) for 30 min and fluorescence is then measured (excitation: 360 nm, emission: 460 nm). The measured emissions of the test batches with test substance are compared to those of control batches without test substance (only dimethyl sulfoxide instead of test substance in dimethyl sulfoxide), and IC50 values are calculated from the concentration/activity relationships.

T2 sequence (P03951 388-625 limits assumed): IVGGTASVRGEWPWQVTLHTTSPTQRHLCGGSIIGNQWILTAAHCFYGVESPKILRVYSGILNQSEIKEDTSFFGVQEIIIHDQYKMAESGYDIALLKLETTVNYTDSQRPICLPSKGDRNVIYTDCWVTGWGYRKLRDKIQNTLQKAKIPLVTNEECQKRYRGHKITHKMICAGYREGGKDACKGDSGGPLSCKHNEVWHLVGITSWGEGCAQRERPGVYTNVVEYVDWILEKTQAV
T2 sequence (P03951 19-387 partner limits assumed): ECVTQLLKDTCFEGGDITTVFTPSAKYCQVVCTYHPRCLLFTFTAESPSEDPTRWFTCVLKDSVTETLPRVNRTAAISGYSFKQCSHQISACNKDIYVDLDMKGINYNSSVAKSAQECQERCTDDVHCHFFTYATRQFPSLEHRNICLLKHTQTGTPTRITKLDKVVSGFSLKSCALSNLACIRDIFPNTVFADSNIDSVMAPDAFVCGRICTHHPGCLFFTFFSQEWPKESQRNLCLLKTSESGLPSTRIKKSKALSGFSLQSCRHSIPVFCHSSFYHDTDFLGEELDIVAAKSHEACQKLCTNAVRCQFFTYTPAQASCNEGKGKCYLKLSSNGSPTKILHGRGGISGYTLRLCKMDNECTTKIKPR
T1 sequence (P03952 391-638 limits assumed): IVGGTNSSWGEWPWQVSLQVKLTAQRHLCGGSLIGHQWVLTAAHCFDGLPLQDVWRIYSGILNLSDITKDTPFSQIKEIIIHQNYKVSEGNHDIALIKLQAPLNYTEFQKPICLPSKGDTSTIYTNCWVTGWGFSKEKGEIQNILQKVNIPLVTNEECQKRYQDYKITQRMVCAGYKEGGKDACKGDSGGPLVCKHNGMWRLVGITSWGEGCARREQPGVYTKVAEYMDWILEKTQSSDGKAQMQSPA
T1 sequence (P03952 20-390 partner limits assumed): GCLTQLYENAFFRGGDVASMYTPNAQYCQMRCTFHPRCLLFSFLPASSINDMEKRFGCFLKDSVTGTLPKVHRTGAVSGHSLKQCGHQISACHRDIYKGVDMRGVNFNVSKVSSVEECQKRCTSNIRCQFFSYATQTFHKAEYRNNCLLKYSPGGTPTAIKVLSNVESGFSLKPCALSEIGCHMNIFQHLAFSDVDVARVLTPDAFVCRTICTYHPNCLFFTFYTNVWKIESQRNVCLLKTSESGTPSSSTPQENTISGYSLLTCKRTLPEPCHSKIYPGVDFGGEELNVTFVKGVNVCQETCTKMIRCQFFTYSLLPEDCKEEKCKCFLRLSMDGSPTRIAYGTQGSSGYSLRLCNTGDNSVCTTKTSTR

Regarding `CC(C)OCC[C@@H](C(=O)Nc1ccc(C(N)=O)cc1)n1cc2c(cc1=O)-c1cc(Cl)ccc1C[C@@H](C)OC2` (single isomer, unassigned) [Example 20], the results for the half-maximal inhibitory concentration (IC50) against human plasma kallikrein and at human factor XIa were 93 nM and 6.6 nM, respectively.

Take `CO[C@@H](C)C[C@@H](C(=O)Nc1ccc(C(N)=O)cc1)n1cc2c(cc1=O)-c1cc(Cl)ccc1C[C@@H](C)O[C@H]2C` (single isomer, unassigned) [Example 74]: the IC50 on human plasma kallikrein was determined as 30 nM; against human factor XIa, 1.4 nM.

On to `C[C@@H]1Cc2ccc(Cl)cc2-c2cc(=O)n([C@@H](C[C@@H]3COCCO3)C(=O)Nc3ccc4nn(C)nc4c3)cc2CO1` (single isomer, unassigned) [Example 12], for which the IC50 came to 42 nM at human plasma kallikrein and 3.3 nM on human factor XIa. The like results for `CC1Cc2ccc(Cl)cc2-c2cc(=O)n(C(C[C@@H]3COCCO3)C(=O)Nc3ccc(C(N)=O)cc3)cc2CO1` (mixture of isomers) [Example 9, 4-({2-(11-Chloro-7-methyl-2-oxo-7,8-dihydro-2H-[3]benzoxocino[5,6-c]pyridin-3(5H)-yl)-3-[(2R)-1,4-dioxan-2-yl]propanoyl}amino)benzamide] were, in that order, 260 nM and 4.5 nM. The like results for `CC[C@@H](C(=O)Nc1ccc(C(N)=O)cc1)n1cc2c(cc1=O)-c1c(ccc(Cl)c1Cl)C[C@@H](C(F)(F)F)OC2` (single isomer, unassigned) [Example 70] were, in that order, 580 nM and 64 nM. The matching figures for `CC(C)[C@@H]1Cc2ccc(Cl)cc2-c2cc(=O)n([C@@H](C[C@@H]3COCCO3)C(=O)Nc3ccc(C(N)=O)cc3)cc2CO1` (single isomer, unassigned) [Example 43]: 380 nM and 1.7 nM. On to `CC[C@@H]1Cc2ccc(Cl)cc2-c2cc(=O)n([C@@H](C[C@@H]3CCCCO3)C(=O)Nc3ccc(C(N)=O)c(F)c3)cc2CO1` (single isomer, unassigned) [Example 31], for which the half-inhibitory concentration (IC50) amounted to 980 nM on human plasma kallikrein and 13 nM against human factor XIa. As to `NC(=O)c1ccc(NC(=O)C(C[C@@H]2CCCCO2)n2cc3c(cc2=O)-c2cc(Cl)ccc2CC(C(F)(F)F)OC3)cc1F` (mixture of isomers) [Example 50, 4-({2-[11-Chloro-2-oxo-7-(trifluoromethyl)-7,8-dihydro-2H-[3]benzoxocino[5,6-c]pyridin-3(5H)-yl]-3-[(2S)-tetrahydro-2H-pyran-2-yl]propanoyl}amino)-2-fluorobenzamide], the results for the IC50 on human plasma kallikrein and against human factor XIa were 1100 nM and 14 nM, respectively. The like results for `COCCC(C(=O)Nc1ccn2ncnc2c1)n1cc2c(cc1=O)-c1cc(Cl)ccc1CC(C(F)(F)F)OC2` (mixture of isomers) [Example 64, 2-[11-Chloro-2-oxo-7-(trifluoromethyl)-7,8-dihydro-2H-[3]benzoxocino[5,6-c]pyridin-3(5H)-yl]-4-methoxy-N-([1,2,4]triazolo[1,5-a]pyridin-7-yl)butanamide] were, in that order, 580 nM and 42 nM. The like results for `CO[C@@H](C)C[C@@H](C(=O)Nc1ccc(C(N)=O)cc1)n1cc2c(cc1=O)-c1c(ccc(Cl)c1F)C[C@@H](C)OC2` (single isomer, unassigned) [Example 29] were, in that order, 47 nM and 1.6 nM. For the molecule `C[C@@H]1Cc2ccc(Cl)cc2-c2cc(=O)n(C(CCOC(F)F)C(=O)Nc3ccc(C(N)=O)cc3)cc2CO1` (mixture of isomers) [Example 16, 4-{2-[(7R)-11-Chlor-7-methyl-2-oxo-7,8-dihydro-2H-[3]benzoxocino[5,6-c]pyridin-3(5H)-yl]-4-(difluoromethoxy)butanamido}benzamide], the figures for the IC50 against human plasma kallikrein and against human factor XIa were 110 nM and 3.5 nM, respectively. The like results for `C[C@@H]1Cc2ccc(Cl)cc2-c2cc(=O)n(C(C[C@H](C)OC(F)F)C(=O)Nc3ccc(C(N)=O)cc3)cc2CO1` (mixture of isomers) [Example 18, 4-{[(4S)-2-[(7R)-11-Chloro-7-methyl-2-oxo-7,8-dihydro-2H-[3]benzoxocino[5,6-c]pyridin-3(5H)-yl]-4-(difluoromethoxy)pentanoyl]amino}benzamide] were, in that order, 140 nM and 3.7 nM.

With `CO[C@@H](C)CC(C(=O)Nc1ccc(C(N)=O)cc1)n1cc2c(cc1=O)-c1cc(Cl)ccc1C[C@@H](C(F)(F)F)OC2` (mixture of isomers) [Example 66, 4-({(4S)-2-[(7S)-11-Chloro-2-oxo-7-(trifluoromethyl)-7,8-dihydro-2H-[3]benzoxocino[5,6-c]pyridin-3(5H)-yl]-4-methoxypentanoyl}amino)benzamide], the figures for the IC50 against human plasma kallikrein and on human factor XIa were 320 nM and 5.1 nM, respectively. The like results for `NC(=O)c1ccc(NC(=O)C(C[C@@H]2COCCO2)n2cc3c(cc2=O)-c2cc(Cl)ccc2CC(C(F)(F)F)OC3)cc1` (mixture of isomers) [Example 58, 4-({2-[11-Chloro-2-oxo-7-(trifluoromethyl)-7,8-dihydro-2H-[3]benzoxocino[5,6-c]pyridin-3(5H)-yl]-3-[(2R)-1,4-dioxan-2-yl]propanoyl}amino)benzamide] were, in that order, 230 nM and 2.1 nM.

Consider `COCC[C@@H](C(=O)Nc1ccn2ncnc2c1)n1cc2c(cc1=O)-c1cc(Cl)ccc1C[C@@H](C(F)(F)F)OC2` (single isomer, unassigned) [Example 65], for which the IC50 on human plasma kallikrein amounted to 120 nM; against human factor XIa it was 6.8 nM. The like results for `C[C@@H]1Cc2ccc(Cl)cc2-c2cc(=O)n([C@@H](CCOC(C)(C)C)C(=O)Nc3ccc(C(N)=O)cc3)cc2CO1` (single isomer, unassigned) [Example 24] were, in that order, 110 nM and 5.4 nM. The matching figures for `CC1Cc2ccc(Cl)cc2-c2cc(=O)n(C(CCOC(C)(C)C)C(=O)Nc3ccc(C(N)=O)c(F)c3)cc2CO1` (mixture of isomers) [Example 21, 4-{[4-tert-Butoxy-2-(11-chloro-7-methyl-2-oxo-7,8-dihydro-2H-[3]benzoxocino[5,6-c]pyridin-3(5H)-yl)butanoyl]amino}-2-fluorobenzamide]: 830 nM and 63 nM. The matching figures for `CO[C@H](C[C@@H](C(=O)Nc1ccc(C(N)=O)cc1)n1cc2c(cc1=O)-c1cc(Cl)ccc1C[C@@H](C)OC2)C(F)F` (single isomer, unassigned) [Example 15]: 140 nM and 3.4 nM. For `CC(C)C1Cc2ccc(Cl)cc2-c2cc(=O)n(C(C[C@@H]3COCCO3)C(=O)Nc3ccc(C(N)=O)cc3)cc2CO1` (mixture of isomers) [Example 42, 4-({2-(11-Chloro-7-isopropyl-2-oxo-7,8-dihydro-2H-[3]benzoxocino[5,6-c]pyridin-3(5H)-yl)-3-[(2R)-1,4-dioxan-2-yl]propanoyl}amino)benzamide], the figures for the IC50 against human plasma kallikrein and at human factor XIa were 810 nM and 3.6 nM, respectively. The like results for `C[C@@H]1Cc2ccc(Cl)cc2-c2cc(=O)n([C@@H](C[C@@H]3CCCCO3)C(=O)Nc3ccc(C(N)=O)cc3)cc2[C@H](C)O1` (single isomer, unassigned) [Example 73] were, in that order, 27 nM and 0.8 nM. The like results for `C[C@@H](C(=O)Nc1ccc(C(N)=O)cc1)n1cc2c(cc1=O)-c1c(ccc(Cl)c1F)C[C@@H](C(F)(F)F)OC2` (single isomer, unassigned) [Example 77] were, in that order, 220 nM and 9.6 nM. `CC(C)[C@@H]1Cc2ccc(Cl)cc2-c2cc(=O)n([C@@H](C[C@@H]3CCCCO3)C(=O)Nc3ccc(C(N)=O)c(F)c3)cc2CO1` (single isomer, unassigned) [Example 39]: at human plasma kallikrein, the IC50 stood at 2000 nM.
